Experimental findings from publication PMC4278837, “A Cyclic Peptidic Serine Protease Inhibitor: Increasing Affinity by Increasing Peptide Flexibility” (PLoS ONE, 2014) are described below.

Square brackets hold non-standard residues; d marks the D form. Peptide text beside a SMILES is read from it. * marks the point of attachment. pNA = O=[N+]([O-])c1ccc(N*)cc1; pGlu = O=C1CC[C@@H](C(=O)O)N1

Settings in all cases: 37°C, HBS with 0.1% BSA
The target in one assay is T1, huPA-H99Y K143A (Homo sapiens, UniProt P00749, H272Y/K320A).
T1 construct: To ensure that the uPAs purified from the conditioned media were completely in the two-chain form, they were treated with plasmin; hexa-His (C); made in house; host or cells: HEK293 6E suspension cells
The assay can be described thus: KM for S-2444 hydrolysis by huPA-H99Y K143A. The class given is biochemical. How it is done:
(§1) Determination of K M values
(§2) To determine the K M values for hydrolysis of S-2444 (pyro-Glu-Gly-Arg-p-nitroanilide) by the different uPA variants used in the present study, a 200 µL 2-fold dilution series of the substrate (4 - 0 mM for huPA variants, 24 – 0 mM for muPA variants) in a buffer of 10 mM HEPES, pH 7.4, 140 mM NaCl (HEPES-buffered saline, HBS), with 0.1% bovine serum albumin (BSA), was incubated 2 min at 37°C, prior to the addition of a fixed concentration of each protease (approximaterly 2 nM final concentration). The initial reaction velocities (V i), monitored as the changes in absorbance at 405 nm, were plotted against the initial substrate concentration ([S]) and non-linear regression analysis was used to determine the K M according to equation 1: […]
(§3) The K M values for hydrolysis of S-2444 by the uPA variants employed in the present study are listed in S2 Table.

The next assay concerns the target T2, muPA S190A (Mus musculus, UniProt P06869, S373A).
T2 construct: To ensure that the uPAs purified from the conditioned media were completely in the two-chain form, they were treated with plasmin; hexa-His (C); made in house; host or cells: HEK293 6E suspension cells
In words: KM for S-2444 hydrolysis by muPA S190A. The class given is biochemical, murine. How it is done: as §1, §2, §3

The next assay addresses T3, muPA K143A (Mus musculus, UniProt P06869, K322A).
T3 construct: To ensure that the uPAs purified from the conditioned media were completely in the two-chain form, they were treated with plasmin; hexa-His (C); made in house; host or cells: HEK293 6E suspension cells
The assay can be described thus: KM for S-2444 hydrolysis by muPA K143A. In kind it is biochemical, murine. How it is done: as §1, §2, §3

The target in another assay is T4, huPA-H99Y (Homo sapiens, UniProt P00749, H272Y).
T4 construct: To ensure that the uPAs purified from the conditioned media were completely in the two-chain form, they were treated with plasmin; hexa-His (C); made in house; host or cells: HEK293 6E suspension cells
In words: KM for S-2444 hydrolysis by huPA-H99Y. The class given is biochemical. How it is done: as §1, §2, §3

The target of a further assay is T5, huPA-H99Y V41A (Homo sapiens, UniProt P00749, H272Y/V208A).
T5 construct: To ensure that the uPAs purified from the conditioned media were completely in the two-chain form, they were treated with plasmin; hexa-His (C); made in house; host or cells: HEK293 6E suspension cells
In words: KM for S-2444 hydrolysis by huPA-H99Y V41A. The class given is biochemical. How it is done:
as §1, §2, §3

A further assay concerns the target T6, muPA wt (Mus musculus, UniProt P06869).
T6 construct: To ensure that the uPAs purified from the conditioned media were completely in the two-chain form, they were treated with plasmin; hexa-His (C); made in house; host or cells: HEK293 6E suspension cells
The assay can be described thus: KM for S-2444 hydrolysis by muPA wt. In kind it is biochemical, murine. How it is done:
as §1, §2, §3

A further assay addresses T7, muPA V213T (Mus musculus, UniProt P06869, V396T).
T7 construct: To ensure that the uPAs purified from the conditioned media were completely in the two-chain form, they were treated with plasmin; hexa-His (C); made in house; host or cells: HEK293 6E suspension cells
The assay can be described thus: KM for S-2444 hydrolysis by muPA V213T. In kind it is biochemical, murine. How it is done:
as §1, §2, §3

The next assay concerns the target huPA-H99Y Q192A (Homo sapiens, UniProt P00749, H272Y/Q373A). In words: KM for S-2444 hydrolysis by huPA-H99Y Q192A. In kind it is biochemical. Also noted: hexa-His (C); made in house; host or cells: HEK293 6E suspension cells. How it is done:
as §1, §2, §3

The target in another assay is T8, muPA Y99A (Mus musculus, UniProt P06869, Y274A).
T8 construct: To ensure that the uPAs purified from the conditioned media were completely in the two-chain form, they were treated with plasmin; hexa-His (C); made in house; host or cells: HEK293 6E suspension cells
The assay can be described thus: KM for S-2444 hydrolysis by muPA Y99A. The class given is biochemical, murine. On the procedure: as §1, §2, §3

The next assay has as its target T9, huPA-H99Y R35A (Homo sapiens, UniProt P00749, H272Y/R198A).
T9 construct: To ensure that the uPAs purified from the conditioned media were completely in the two-chain form, they were treated with plasmin; hexa-His (C); made in house; host or cells: HEK293 6E suspension cells
The assay can be described thus: KM for S-2444 hydrolysis by huPA-H99Y R35A. In kind it is biochemical. On the procedure: as §1, §2, §3

The target of the next assay is T10, muPA K41A (Mus musculus, UniProt P06869, K210A).
T10 construct: To ensure that the uPAs purified from the conditioned media were completely in the two-chain form, they were treated with plasmin; hexa-His (C); made in house; host or cells: HEK293 6E suspension cells
The assay can be described thus: KM for S-2444 hydrolysis by muPA K41A. The class given is biochemical, murine. How it is done:
as §1, §2, §3

Another assay has as its target T11, huPA wt (Homo sapiens, UniProt P00749).
T11 construct: To ensure that the uPAs purified from the conditioned media were completely in the two-chain form, they were treated with plasmin; hexa-His (C); made in house; host or cells: HEK293 6E suspension cells
The assay can be described thus: KM for S-2444 hydrolysis by huPA wt. In kind it is biochemical. How it is done: as §1, §2, §3

T2 sequence (P06869 180-433 S373A): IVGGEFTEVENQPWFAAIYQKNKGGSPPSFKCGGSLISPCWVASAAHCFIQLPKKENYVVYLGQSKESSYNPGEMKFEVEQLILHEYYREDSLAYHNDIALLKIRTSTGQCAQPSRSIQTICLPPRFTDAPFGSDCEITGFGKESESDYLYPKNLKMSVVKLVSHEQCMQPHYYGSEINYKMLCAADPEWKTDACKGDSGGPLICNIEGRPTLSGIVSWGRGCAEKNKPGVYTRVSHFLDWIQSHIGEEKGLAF
T2 sequence (P06869 21-178 partner limits assumed): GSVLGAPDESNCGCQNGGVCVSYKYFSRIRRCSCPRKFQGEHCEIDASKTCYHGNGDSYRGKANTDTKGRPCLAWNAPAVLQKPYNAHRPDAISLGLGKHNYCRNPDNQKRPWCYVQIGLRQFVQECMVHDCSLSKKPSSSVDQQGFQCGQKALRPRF
T7 sequence (P06869 180-433 V396T): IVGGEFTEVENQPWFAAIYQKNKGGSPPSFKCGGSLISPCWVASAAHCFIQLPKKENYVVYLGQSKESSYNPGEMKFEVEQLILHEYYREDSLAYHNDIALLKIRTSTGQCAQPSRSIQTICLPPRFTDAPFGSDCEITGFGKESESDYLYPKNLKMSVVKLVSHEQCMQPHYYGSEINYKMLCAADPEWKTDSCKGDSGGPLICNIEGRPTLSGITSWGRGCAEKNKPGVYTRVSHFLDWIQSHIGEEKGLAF
T7 sequence (P06869 21-178 partner limits assumed): as the sequence (P06869 21-178 partner limits assumed) above
T3 sequence (P06869 180-433 K322A): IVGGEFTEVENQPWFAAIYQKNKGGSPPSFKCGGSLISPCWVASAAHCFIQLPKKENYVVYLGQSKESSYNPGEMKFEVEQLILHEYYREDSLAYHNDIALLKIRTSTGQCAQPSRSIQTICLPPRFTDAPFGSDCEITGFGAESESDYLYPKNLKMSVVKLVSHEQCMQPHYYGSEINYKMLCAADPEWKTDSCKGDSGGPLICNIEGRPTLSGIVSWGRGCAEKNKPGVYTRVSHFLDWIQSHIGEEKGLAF
T3 sequence (P06869 21-178 partner limits assumed): as the sequence (P06869 21-178 partner limits assumed) above
T6 sequence (P06869 180-433 limits assumed): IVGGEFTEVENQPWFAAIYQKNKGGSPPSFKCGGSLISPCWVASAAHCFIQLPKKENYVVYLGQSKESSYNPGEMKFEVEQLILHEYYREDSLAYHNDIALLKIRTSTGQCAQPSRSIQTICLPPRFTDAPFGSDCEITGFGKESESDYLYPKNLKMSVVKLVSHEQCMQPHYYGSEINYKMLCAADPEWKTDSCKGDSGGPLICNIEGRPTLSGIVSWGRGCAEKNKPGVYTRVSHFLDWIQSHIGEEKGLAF
T6 sequence (P06869 21-178 partner limits assumed): as the sequence (P06869 21-178 partner limits assumed) above
T8 sequence (P06869 180-433 Y274A): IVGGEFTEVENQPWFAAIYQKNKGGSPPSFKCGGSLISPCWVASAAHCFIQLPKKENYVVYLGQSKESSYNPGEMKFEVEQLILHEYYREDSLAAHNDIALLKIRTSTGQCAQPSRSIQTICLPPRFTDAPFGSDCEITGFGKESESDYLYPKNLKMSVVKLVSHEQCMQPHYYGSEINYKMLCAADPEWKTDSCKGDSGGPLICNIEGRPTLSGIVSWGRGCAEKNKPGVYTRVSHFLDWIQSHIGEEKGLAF
T8 sequence (P06869 21-178 partner limits assumed): as the sequence (P06869 21-178 partner limits assumed) above
T10 sequence (P06869 180-433 K210A): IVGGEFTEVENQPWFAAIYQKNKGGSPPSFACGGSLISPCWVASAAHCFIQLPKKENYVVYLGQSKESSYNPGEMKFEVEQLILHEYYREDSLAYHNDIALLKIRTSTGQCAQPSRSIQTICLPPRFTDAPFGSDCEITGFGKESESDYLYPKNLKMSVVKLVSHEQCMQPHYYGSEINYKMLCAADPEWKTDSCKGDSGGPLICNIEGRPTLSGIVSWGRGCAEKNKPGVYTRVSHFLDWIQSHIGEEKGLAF
T10 sequence (P06869 21-178 partner limits assumed): as the sequence (P06869 21-178 partner limits assumed) above

As for `NC(N)=NCCC[C@H](NC(=O)CNC(=O)[C@@H]1CCC(=O)N1)C(=O)Nc1ccc([N+](=O)[O-])cc1` [S-2444, pyro-Glu-Gly-Arg-p-nitroanilide] ([pGlu]-Gly-Arg-pNA), the Km is 500 ± 41 µM at huPA-H99Y K143A; 10800 ± 1000 µM on muPA S190A; 1000 ± 400 µM on muPA K143A; 610 ± 110 µM at huPA-H99Y; 742 ± 73 µM on huPA-H99Y V41A; 2400 ± 200 µM on muPA wt. The Km at muPA V213T worked out at 868 ± 350 µM; on huPA-H99Y Q192A, 904 ± 178 µM; at muPA Y99A, 3600 ± 300 µM; on huPA-H99Y R35A it was 517 ± 156 µM; on muPA K41A, 2500 ± 200 µM; at huPA wt, 87 ± 0.3 µM.

A word on the Km: it is the concentration of substrate that gives half-maximal velocity.
